Measured values published in patent US20240209334A1, “SMALL-MOLECULE-ACTIVATED GLYCAN MODIFYING ENZYMES AND USES THEREOF” (President and Fellows of Harvard College, priority 2022, published 2024).

Columns and labels:
[1] = test system: regular MCF-7 cells; assay: Cell viability, CCK-8 assay; assay type: cell-based, human; conditions: 48 hours
Text: (§1) In addition to serving as an activator for intein splicing, 4-HT is also known as the active metabolite of tamoxifen, an FDA-approved drug for treating breast cancer patients. Breast cancer cells also have elevated OGT expression (39) and decreased levels of OGA (40, 41), resulting in elevated O-GlcNAcylation in the proteome. OGT is usually required for tumor growth and metastasis (39), and low OGA expression is correlated with poor survival in breast cancer patients (FIG. 13). The ER positive breast cancer-derived MCF-7 cell line is sensitive to tamoxifen and 4-HT, resulting in suppression of cell proliferation, yet drug resistance occurs after long-term treatment (42). […] To determine if reduction of O-GlcNAc sensitized MCF-7 cells to 4-HT treatment, it was assessed whether 4-HT induced inhibition of breast cancer cell proliferation and OGA-intein activation worked synergistically to accelerate cell death (FIG. 5A). […] Next, these two cell lines were treated with 4-HT at increasing concentrations, and cell viability was measured after 48 hours. […] Given that 4-HT promoted MCF-7 cell death through apoptosis (43), the apoptosis of these cells under 4-HT treatment was further analyzed through flow cytometry analyses following Annexin V and DAPI staining. […]
(§2) Cell viability assay. Cell viability was assessed by CCK-8 assay. […]

[2] = test system: MCF7-C181_D174N cells; assay: Cell viability, CCK-8 assay; assay type: cell-based, human; conditions: 48 hours
Text: as §1, §2

[3] = test system: MCF7-C181 cells; assay: Cell viability, CCK-8 assay; assay type: cell-based, human; conditions: 48 hours
Text: as §1, §2

[4] = test system: MCF7-C181 cells; assay: Apoptosis, Annexin V/DAPI flow cytometry; assay type: cell-based, human; conditions: 10 μM 4-HT for 24 hours
Text: as §1
(§3) Detection of cell apoptosis. […] Data was analyzed by FlowJo v10.

[5] = test system: MCF7-C181_D174N; assay: Apoptosis, Annexin V/DAPI flow cytometry; assay type: cell-based, human; conditions: 10 μM 4-HT for 24 hours
Text: as §1, §3

[6] = test system: O-GlcNAcylated proteins in HEK293T cells; assay: Quantitative proteomics after enrichment for O-GlcNAc; assay type: cell-based, Homo sapiens; conditions: 25 μM OSMI-4b for 10 hours
Protocol: To further assess the spatial deglycosylation mediated by these subcellularly localized OGA-intein variants, quantitative proteomics was performed following enrichment for O-GlcNAc (38) on cell lysates after expression of C181-NLS with 4-HT treatment for 2 hours and 24 hours, respectively, or the OGT inhibitor OSMI-4b (3) for comparison (FIG. 4E and FIGS. 12A, 12B, 12C).
Chemoenzymatic labeling of O-GlcNAcylated proteins. Purification of GalT1 (Y289L) enzyme and labeling of O-GlcNAcylated proteins with GalNAz were performed according to the procedure of Hsich-Wilson and co-workers (51). Briefly, cell samples in 15-cm dishes were harvested and washed by PBS once. Cells were lysed in 2% SDS/PBS by heating at 95° C. for 5 minutes, followed by sonication. Protein concentrations were determined and then subjected to reduction and alkylation using 25 mM DTT at 95° C. for 5 minutes and 50 mM iodoacetamide at room temperature for 1 hour, respectively. Proteins were precipitated using the methanol/chloroform mix (aqueous phase: CH3OH:CHCl3=4:4:1) and resuspended in 1% SDS, 20 mM HEPES (pH 7.9) buffer with a concentration of 3.75 mg/mL. […]
Quantitative chemical proteomics. […]

Row | Compound | 4-HT concentration required for suppressing survival [1] [µM] | 4-HT concentration required for suppressing survival [2] [µM] | 4-HT concentration giving almost complete cell survival inhibition [3] [µM] | apoptotic cells [4] [%] | apoptotic cells [5] [%] | change of O-GlcNAc on nuclear and cytoplasmic proteins [6]
1 | CC/C(=C(\c1ccc(O)cc1)c1ccc(OCCN(C)C)cc1)c1ccccc1 [4-HT, 4-hydroxytamoxifen] | > 5 | > 5 | 5 | 6.84 | 6.09 | 
2 | CCOC(=O)CN(Cc1cccs1)C(=O)[C@H](NS(=O)(=O)c1cc2ccc(=O)[nH]c2cc1Cl)c1ccccc1OC [OSMI-4b] |  |  |  |  |  | mild reduction of O-GlcNAc on both nuclear and cytoplasmic proteins
